In ChEMBL document CHEMBL1152857, “Possible anticancer agents: QSAR analogs of glutamamide: synthesis and pharmacological activity of 1,5-N,N'-disubstituted-2-(substituted benzenesulphonyl) glutamamides” (2009):

How the values were obtained:
IMR-32 = assay: Cytotoxicity against human IMR32 cells at 60 ug/ml by MTT assay; format: functional
[1] = Anticancer activity against mouse EAC cells xenografted in Swiss albino mouse assessed as inhibition of ascitic fluid weight; format: functional, Ehrlich
[2] = Anticancer activity against mouse EAC cells xenografted in Swiss albino mouse assessed as inhibition of ascitic cell count; format: functional, Ehrlich
[3] = Anticancer activity against mouse EAC cells xenografted in Swiss albino mouse assessed as inhibition of ascitic fluid weight at 1 mg/kg; format: functional; details: Ehrlich
[4] = Anticancer activity against mouse EAC cells xenografted in Swiss albino mouse assessed as inhibition of ascitic cell count at 1 mg/kg; format: functional; details: Ehrlich

Compound: CC(C)CNC(=O)CCC(NS(=O)(=O)c1ccc(Br)cc1)C(=O)NCC(C)C (stereo not given)
- inhibition at 60 µg/mL (IMR-32): 17.1%
- inhibition (INH) [1]: 54%
- inhibition (INH) [2]: 50.8%

Compound: O=C(CCC(NS(=O)(=O)c1ccc(Br)cc1)C(=O)NC1CCCCC1)NC1CCCCC1 (stereo not given)
- inhibition at 60 µg/mL (IMR-32): 18.4%
- inhibition (INH) [1]: 43%
- inhibition (INH) [2]: 47%

Compound: O=C(CCC(NS(=O)(=O)c1ccc(Cl)c(Cl)c1)C(=O)NC1CCCCC1)NC1CCCCC1 (stereo not given)
- inhibition at 60 µg/mL (IMR-32): 24%
- inhibition (INH) [1]: 16.8%
- inhibition (INH) [2]: 17.4%

Compound: O=C(CCC(NS(=O)(=O)c1cc(Cl)ccc1Cl)C(=O)NCc1ccccc1)NCc1ccccc1 (stereo not given)
- inhibition at 60 µg/mL (IMR-32): 13.4%
- inhibition (INH) [1]: 49.9%
- inhibition (INH) [2]: 53.1%

Compound: O=C(CCC(NS(=O)(=O)c1ccc(Cl)c(Cl)c1)C(=O)NCc1ccccc1)NCc1ccccc1 (stereo not given)
- inhibition at 60 µg/mL (IMR-32): 11.4%
- inhibition (INH) [1]: 40%
- inhibition (INH) [2]: 45.3%

Compound: CCNC(=O)CCC(NS(=O)(=O)c1cc(C)ccc1Cl)C(=O)NCC (stereo not given)
- inhibition at 60 µg/mL (IMR-32): 31.8%
- inhibition (INH) [1]: 28.1%
- inhibition (INH) [2]: 32.3%

Compound: CCNC(=O)CCC(NS(=O)(=O)c1ccc(C(C)(C)C)cc1)C(=O)NCC (stereo not given)
- inhibition at 60 µg/mL (IMR-32): 58.4%
- inhibition (INH) [1]: 30.8%
- inhibition (INH) [2]: 21.6%

Compound: CC(C)CNC(=O)CCC(NS(=O)(=O)c1cc(Cl)ccc1Cl)C(=O)NCC(C)C (stereo not given)
- inhibition at 60 µg/mL (IMR-32): 20.4%
- inhibition (INH) [1]: 42.5%
- inhibition (INH) [2]: 79.3%

Compound: CCCCCCNC(=O)CCC(NS(=O)(=O)c1cc(Cl)ccc1Cl)C(=O)NCCCCCC (stereo not given)
- inhibition at 60 µg/mL (IMR-32): 12.4%
- inhibition (INH) [1]: 31.9%
- inhibition (INH) [2]: 52.9%

Compound: CC(C)NC(=O)CCC(NS(=O)(=O)c1ccc(C(C)(C)C)cc1)C(=O)NC(C)C (stereo not given)
- inhibition at 60 µg/mL (IMR-32): 65.6%
- inhibition (INH) [1]: 44.7%
- inhibition (INH) [2]: 34.1%

Compound: Cc1ccc(S(=O)(=O)NC(CCC(N)=O)C(N)=O)c(C)c1 (stereo not given)
- inhibition at 60 µg/mL (IMR-32): 28.2%
- inhibition (INH) [1]: 31.2%
- inhibition (INH) [2]: 35.2%

Compound: O=C(CCC(NS(=O)(=O)c1ccc(Br)cc1)C(=O)Nc1ccccc1)Nc1ccccc1 (stereo not given)
- inhibition at 60 µg/mL (IMR-32): 10%
- inhibition (INH) [1]: 63.4%
- inhibition (INH) [2]: 66.5%

Compound: CCCNC(=O)CCC(NS(=O)(=O)c1cc(C)ccc1Cl)C(=O)NCCC (stereo not given)
- inhibition at 60 µg/mL (IMR-32): 14.9%

Compound: CC(C)(C)c1ccc(S(=O)(=O)NC(CCC(N)=O)C(N)=O)cc1 (stereo not given)
- inhibition (INH) [1]: 27.5%
- inhibition (INH) [2]: 42.15%

Compound: CC(C)NC(=O)CCC(NS(=O)(=O)c1cc(Cl)ccc1Cl)C(=O)NC(C)C (stereo not given)
- inhibition at 60 µg/mL (IMR-32): 16.7%
- inhibition (INH) [1]: 38.5%
- inhibition (INH) [2]: 73.3%

Compound: Cc1ccc(Cl)c(S(=O)(=O)NC(CCC(=O)NCC(C)C)C(=O)NCC(C)C)c1 (stereo not given)
- inhibition (INH) [1]: 27.9%
- inhibition (INH) [2]: 40%

Compound: Cc1ccc(Cl)c(S(=O)(=O)NC(CCC(=O)NC2CCCCC2)C(=O)NC2CCCCC2)c1 (stereo not given)
- inhibition at 60 µg/mL (IMR-32): 49.7%
- inhibition (INH) [1]: 40.2%
- inhibition (INH) [2]: 35%

Compound: Cc1ccc(Cl)c(S(=O)(=O)NC(CCC(=O)NCc2ccccc2)C(=O)NCc2ccccc2)c1 (stereo not given)
- inhibition (INH) [1]: 36.5%
- inhibition (INH) [2]: 50.5%

Compound: CCCCCNC(=O)CCC(NS(=O)(=O)c1cc(C)ccc1Cl)C(=O)NCCCCC (stereo not given)
- inhibition at 60 µg/mL (IMR-32): 14.7%
- inhibition (INH) [1]: 33.3%
- inhibition (INH) [2]: 47.1%

Compound: CCCCCCNC(=O)CCC(NS(=O)(=O)c1cc(C)ccc1Cl)C(=O)NCCCCCC (stereo not given)
- inhibition at 60 µg/mL (IMR-32): 11.3%
- inhibition (INH) [1]: 24.2%
- inhibition (INH) [2]: 33.4%

Compound: Cc1ccc(Cl)c(S(=O)(=O)NC(CCC(N)=O)C(N)=O)c1 (stereo not given)
- inhibition at 60 µg/mL (IMR-32): 25.8%
- inhibition (INH) [1]: 36.5%
- inhibition (INH) [2]: 28.6%

Compound: CCCCNC(=O)CCC(NS(=O)(=O)c1ccc(C)cc1C)C(=O)NCCCC (stereo not given)
- inhibition at 60 µg/mL (IMR-32): 46.1%
- inhibition (INH) [1]: 46.1%
- inhibition (INH) [2]: 35.6%

Compound: CCCCCNC(=O)CCC(NS(=O)(=O)c1ccc(Cl)c(Cl)c1)C(=O)NCCCCC (stereo not given)
- inhibition at 60 µg/mL (IMR-32): 20.8%
- inhibition (INH) [1]: 28.1%
- inhibition (INH) [2]: 10%

Compound: CCCCNC(=O)CCC(NS(=O)(=O)c1cc(C)ccc1Cl)C(=O)NCCCC (stereo not given)
- inhibition at 60 µg/mL (IMR-32): 18%
- inhibition (INH) [1]: 25.2%
- inhibition (INH) [2]: 43.5%

Compound: Cc1ccc(Cl)c(S(=O)(=O)NC(CCC(=O)Nc2ccccc2)C(=O)Nc2ccccc2)c1 (stereo not given)
- inhibition (INH) [1]: 41.2%
- inhibition (INH) [2]: 45.5%

Compound: CCCCNC(=O)CCC(NS(=O)(=O)c1cc(Cl)ccc1Cl)C(=O)NCCCC (stereo not given)
- inhibition at 60 µg/mL (IMR-32): 15.8%
- inhibition (INH) [1]: 34%
- inhibition (INH) [2]: 57.9%

Compound: CCCCCCNC(=O)CCC(NS(=O)(=O)c1ccc(C)cc1C)C(=O)NCCCCCC (stereo not given)
- inhibition at 60 µg/mL (IMR-32): 66%
- inhibition (INH) [1]: 38.4%
- inhibition (INH) [2]: 52.1%

Compound: O=C(CCC(NS(=O)(=O)c1ccc(Br)cc1)C(=O)NCc1ccccc1)NCc1ccccc1 (stereo not given)
- inhibition (INH) [1]: 70%
- inhibition (INH) [2]: 48.9%

Compound: CCCCCNC(=O)CCC(NS(=O)(=O)c1cc(Cl)ccc1Cl)C(=O)NCCCCC (stereo not given)
- inhibition at 60 µg/mL (IMR-32): 12.2%
- inhibition (INH) [1]: 41.2%
- inhibition (INH) [2]: 61.1%

Compound: Cc1ccc(Cl)c(S(=O)(=O)NC(CCC(=O)NC(C)C)C(=O)NC(C)C)c1 (stereo not given)
- inhibition at 60 µg/mL (IMR-32): 29.8%
- inhibition (INH) [1]: 81.5%
- inhibition (INH) [2]: 53%

Compound: CCNC(=O)CCC(NS(=O)(=O)c1cc(Cl)ccc1Cl)C(=O)NCC (stereo not given)
- inhibition at 60 µg/mL (IMR-32): 12.9%
- inhibition (INH) [1]: 60.5%
- inhibition (INH) [2]: 67.5%

Compound: O=C(CCC(NS(=O)(=O)c1cc(Cl)ccc1Cl)C(=O)Nc1ccccc1)Nc1ccccc1 (stereo not given)
- inhibition at 60 µg/mL (IMR-32): 22.9%
- inhibition (INH) [1]: 35.2%
- inhibition (INH) [2]: 71.1%

Compound: [N-]=[N+]=CC(=O)CC[C@H](N)C(=O)O [6-DIAZO-5-OXO-L-NORLEUCINE]
- inhibition in vivo at 1 mg/kg [3]: 100%
- inhibition in vivo at 1 mg/kg [4]: 100%

Compound: N#[N+]/C=C(\[O-])OC[C@H](N)C(=O)O [AZASERIN]
- inhibition in vivo at 1 mg/kg [3]: 100%
- inhibition in vivo at 1 mg/kg [4]: 100%

Compound: CO[C@@]12[C@H](COC(N)=O)C3=C(C(=O)C(C)=C(N)C3=O)N1C[C@@H]1N[C@@H]12 [MITOMYCIN]
- inhibition in vivo at 1 mg/kg [3]: 100%
- inhibition in vivo at 1 mg/kg [4]: 100%
